Test results: US12515032B2, “Gelatin methacryloyl-based microneedle patches for delivery of water-insoluble drugs” (THE REGENTS OF THE UNIVERSITY OF CALIFORNIA, priority 2020, dated 2026)

What was measured:
[1] = Aqueous stability of curcumin in DPBS (absorbance at 430 nm); format: physicochemical; settings: after 1 h at 37° C. incubation
Procedure: The stability of curcumin was monitored by measuring absorbance at 430 nm for both the inclusion complex and free curcumin dissolved in DPBS (DPBS diluted with ethanol). The percentage of remaining curcumin was estimated by measuring the absorbance compared to the initial absorbance over a 6 h period. […] GelMA-β-(D) and curcumin inclusion complex preparation: […] For comparison of curcumin solubility, GelMA was used as a control and the resulting solution was named as GelMA/CUR. After the equilibrium was reached, the suspension was centrifuged at 12,000 rpm for 10 min; supernatants were withdrawn and further filtered through a 0.22 μm film. The inclusion complex solutions were measured for absorbance at 430 nm to assess solubility. The prepared GelMA-β-CD/CUR solution was also used for aqueous stability study compared to free curcumin dissolved in DPBS (DPBS:ethanol as 4:1). The GelMA-β-CD/CUR solutions were freeze-dried for additional FTIR and DSC analysis.

[2] = Curcumin loading capacity / solubility in GelMA and GelMA-β-CD solution (absorbance at 430 nm); format: physicochemical
Procedure: Curcumin was selected as a model for water-insoluble drug or therapeutic agent 26 (FIG. 11) to test the loading efficacy of GelMA-β-CD. Aqueous drug suspension was used to compare the loading capacity relative to unmodified GelMA. […] The intermolecular interaction between CD and curcumin primarily dictated the desirable properties of water-insoluble drug 26 delivery.
GelMA-β-(D) and curcumin inclusion complex preparation: To prepare the inclusion complex, excess amount of curcumin (5 mg) was added to pre-dissolved GelMA-β-CD solution in 1 mL DPBS (20%, g/mL) and stirred at 37° C. for 30 min to form the inclusion complex solution where curcumin could be encapsulated within the cavity of CD and the resulting solution was named as GelMA-β-CD/CUR. For comparison of curcumin solubility, GelMA was used as a control and the resulting solution was named as GelMA/CUR. After the equilibrium was reached, the suspension was centrifuged at 12,000 rpm for 10 min; supernatants were withdrawn and further filtered through a 0.22 μm film. The inclusion complex solutions were measured for absorbance at 430 nm to assess solubility. The prepared GelMA-β-CD/CUR solution was also used for aqueous stability study compared to free curcumin dissolved in DPBS (DPBS:ethanol as 4:1). The GelMA-β-CD/CUR solutions were freeze-dried for additional FTIR and DSC analysis.

| Molecule | Percentage of remaining curcumin [1] | Loading capacity (solubility) of curcumin [2] [µg/mL] |
| --- | --- | --- |
| COc1cc(/C=C/C(=O)CC(=O)/C=C/c2ccc(O)c(OC)c2)ccc1O [curcumin] | approximately 45% | – |
| gelatin methacryloyl [GelMA] | – | 84.8 ± 13.5 |
